Assay results reported in patent publication US6355799B1, “Substituted benzene compounds, process for their preparation, and herbicidal and defoliant compositions containing them” (ISK Americas Incorporated, priority 1997, dated 2002).

Assays:
Assay type in all cases: in vivo
[1] = test system: common ragweed (Ambrosia artemisizfolia L., AMBEL); assay: Post-emerge test, greenhouse herbicide activity screening; conditions: post-emerge, 14 days after application, rating scale 0-100
How it was run: (§1)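 Herbicidal damage is scored 0 (none) to 100 (complete plant death) two weeks after a simulated field spray. Rates span 15–1000 g ai/ha, delivered in acetone at 187 l/ha. For post-emergence treatments, plants have 2–3 leaves and the spray carries 0.25% v/v non-ionic surfactant.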

[2] = test system: velvetleaf (Abutilon theophrasti, ABUTH); assay: as above; conditions: post-emerge, 14 days after application, rating scale 0-100
How it was run: as §1

[3] = test system: barnyardgrass (Echinochloa crus-galli, ECHCG); assay: as above; conditions: post-emerge, 14 days after application, rating scale 0-100
How it was run: as §1

[4] = test system: green foxtail (Setaria viridis, SETVI); assay: as above; conditions: post-emerge, 14 days after application, rating scale 0-100
How it was run: as §1

[5] = test system: sicklepod (Cassia obtusifolia, CASOB); assay: as above; conditions: post-emerge, 14 days after application, rating scale 0-100
How it was run: as §1

[6] = test system: ivyleaf morningglory (Ipomoea hederacea, IPOHE); assay: as above; conditions: post-emerge, 14 days after application, rating scale 0-100
How it was run: as §1

[7] = test system: large crabgrass (Digitaria sanguinalis, DIGSA); assay: as above; conditions: post-emerge, 14 days after application, rating scale 0-100
How it was run: as §1

[8] = test system: lambsquarters (Chenopodium album, CHEAL); assay: as above; conditions: post-emerge, 14 days after application, rating scale 0-100
How it was run: as §1

[9] = test system: redroot pigweed (Amaranthus retroflexus, AMARE); assay: as above; conditions: post-emerge, 14 days after application
How it was run: as §1

[10] = test system: johnsongrass (Sorghum halepense, SORHA); assay: as above; conditions: post-emerge, 14 days after application, rating scale 0-100
How it was run: as §1

[11] = test system: redroot pigweed (Amaranthus retroflexus, AMARE); assay: Pre-emerge test, greenhouse herbicide activity screening; conditions: phytotoxicity rating 0-100, 14 days after application
How it was run: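 Visual ratings on a 0-100 scale (0 no damage, 100 all plants dead) were taken at 14 days after treatment. Rates of 15-1000 g ai/ha in acetone, 187 l/ha, were sprayed onto soil one day after planting (pre-emerge) or onto 2-3 leaf plants with 0.25% v/v surfactant (post-emerge).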

[12] = test system: common ragweed (Ambrosia artemisizfolia L., AMBEL); assay: as above; conditions: phytotoxicity rating 0-100, 14 days after application
How it was run: (§2)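 Compounds in acetone were track-sprayed at 15-1000 g ai/ha (187 l/ha) on sandy loam pots: pre-emerge one day after seeding, post-emerge at 2-3 leaf stage with 0.25% v/v non-ionic surfactant. Phytotoxicity was rated 14 days later on a 0 (no damage) to 100 (complete death) scale.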

[13] = test system: velvetleaf (Abutilon theophrasti, ABUTH); assay: as above; conditions: phytotoxicity rating 0-100, 14 days after application
How it was run: as §2

[14] = test system: barnyardgrass (Echinochloa crus-galli, ECHCG); assay: as above; conditions: phytotoxicity rating 0-100, 14 days after application
How it was run: as §2

[15] = test system: green foxtail (Setaria viridis, SETVI); assay: as above; conditions: phytotoxicity rating 0-100, 14 days after application
How it was run: as §2

[16] = test system: sicklepod (Cassia obtusifolia, CASOB); assay: as above; conditions: phytotoxicity rating 0-100, 14 days after application
How it was run: as §2

[17] = test system: ivyleaf morningglory (Ipomoea hederacea, IPOHE); assay: as above; conditions: phytotoxicity rating 0-100, 14 days after application
How it was run: as §2

[18] = test system: large crabgrass (Digitaria sanguinalis, DIGSA); assay: as above; conditions: phytotoxicity rating 0-100, 14 days after application
How it was run: as §2

[19] = test system: lambsquarters (Chenopodium album, CHEAL); assay: as above; conditions: phytotoxicity rating 0-100, 14 days after application
How it was run: as §2

[20] = test system: johnsongrass (Sorghum halepense, SORHA); assay: as above; conditions: phytotoxicity rating 0-100, 14 days after application
How it was run: as §2

[21] = test system: upland rice (Oryza sp., var. Tebonnet, RICE); assay: Post-emerge test, crop safety; conditions: post-emerge, 63 g ai/ha, 14 days after application, rating scale 0-100
How it was run: as §2

[22] = test system: field corn (Zea mays L., var. Dekalb 535, CORN); assay: Post-emerge test, crop safety; conditions: post-emerge, 14 days after application, rating scale 0-100
How it was run: as §2

[23] = test system: upland rice (Oryza sp., var. Tebonnet, RICE); assay: Pre-emerge test, crop safety; conditions: crop damage rating 0-100, 14 days after application
How it was run: (§3)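 Compounds in acetone were track-sprayed at 187 l/ha, 15–1000 g ai/ha, onto sandy loam pots. Pre-emerge seeds were sown one day before spraying, with surface watering afterwards. Post-emerge plants were at the 2–3 leaf stage and sprayed with 0.25% v/v non-ionic surfactant. Injury was rated 0–100 at 14 days.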

[24] = test system: field corn (Zea mays L., var. Dekalb 535, CORN); assay: Pre-emerge test, crop safety; conditions: crop damage rating 0-100, 14 days after application
How it was run: as §3

Substance: 2-(4-chloro-3-ethoxy-6-fluoro-2-naphthoylamidophenyl)-1-methyl-6-trifluoromethyl-2,4(1H, 3H)-pyrimidinedione [Compound 2-196]
- phytotoxicity rating AMBEL ([1]; 63 g ai/ha): 100
- phytotoxicity rating AMBEL ([1]; 250 g ai/ha): 90
- phytotoxicity rating ABUTH ([2]; 63 g ai/ha): 100
- phytotoxicity rating ABUTH ([2]; 250 g ai/ha): 100
- phytotoxicity rating ECHCG ([3]; 63 g ai/ha): 10
- phytotoxicity rating ECHCG ([3]; 250 g ai/ha): 10
- phytotoxicity rating SETVI ([4]; 63 g ai/ha): 30
- phytotoxicity rating SETVI ([4]; 250 g ai/ha): 20
- phytotoxicity rating CASOB ([5]; 63 g ai/ha): 100
- phytotoxicity rating CASOB ([5]; 250 g ai/ha): 100
- phytotoxicity rating IPOHE ([6]; 63 g ai/ha): 90
- phytotoxicity rating IPOHE ([6]; 250 g ai/ha): 100
- phytotoxicity rating DIGSA ([7]; 63 g ai/ha): 10
- phytotoxicity rating DIGSA ([7]; 250 g ai/ha): 20
- phytotoxicity rating CHEAL ([8]; 63 g ai/ha): 100
- phytotoxicity rating CHEAL ([8]; 250 g ai/ha): 100
- phytotoxicity rating AMARE ([9]; 63 g ai/ha, rating scale 0-100 (0 no damage, 100 complete death)): 100
- phytotoxicity rating AMARE ([9]; 250 g ai/ha, rating scale 0-100): 100
- phytotoxicity rating SORHA ([10]; 63 g ai/ha): 10
- phytotoxicity rating SORHA ([10]; 250 g ai/ha): 10
- Pre-emerge Herbicidal Activity AMARE ([11]; 63 g ai/ha): 100
- Pre-emerge Herbicidal Activity AMARE ([11]; 250 g ai/ha): 100
- Pre-emerge Herbicidal Activity AMBEL ([12]; 63 g ai/ha): 30
- Pre-emerge Herbicidal Activity AMBEL ([12]; 250 g ai/ha): 90
- Pre-emerge Herbicidal Activity ABUTH ([13]; 63 g ai/ha): 100
- Pre-emerge Herbicidal Activity ABUTH ([13]; 250 g ai/ha): 100
- Pre-emerge Herbicidal Activity ECHCG ([14]; 63 g ai/ha): 40
- Pre-emerge Herbicidal Activity ECHCG ([14]; 250 g ai/ha): 85
- Pre-emerge Herbicidal Activity SETVI ([15]; 63 g ai/ha): 90
- Pre-emerge Herbicidal Activity SETVI ([15]; 250 g ai/ha): 100
- Pre-emerge Herbicidal Activity CASOB ([16]; 63 g ai/ha): 0
- Pre-emerge Herbicidal Activity CASOB ([16]; 250 g ai/ha): 60
- Pre-emerge Herbicidal Activity IPOHE ([17]; 63 g ai/ha): 20
- Pre-emerge Herbicidal Activity IPOHE ([17]; 250 g ai/ha): 70
- Pre-emerge Herbicidal Activity DIGSA ([18]; 63 g ai/ha): 90
- Pre-emerge Herbicidal Activity DIGSA ([18]; 250 g ai/ha): 100
- Pre-emerge Herbicidal Activity CHEAL ([19]; 63 g ai/ha): 100
- Pre-emerge Herbicidal Activity CHEAL ([19]; 250 g ai/ha): 100
- Pre-emerge Herbicidal Activity SORHA ([20]; 63 g ai/ha): 10
- Pre-emerge Herbicidal Activity SORHA ([20]; 250 g ai/ha): 20
- phytotoxicity rating RICE (crop damage) [21]: 30
- phytotoxicity rating CORN (crop damage) ([22]; 63 g ai/ha): 10
- phytotoxicity rating CORN (crop damage) ([22]; 250 g ai/ha): 15
- Pre-emerge Herbicidal Activity RICE ([23]; 63 g ai/ha): 20
- Pre-emerge Herbicidal Activity RICE ([23]; 250 g ai/ha): 50
- Pre-emerge Herbicidal Activity CORN ([24]; 63 g ai/ha): 0
- Pre-emerge Herbicidal Activity CORN ([24]; 250 g ai/ha): 0
